Biological target: acetylcholinesterase (AChE)
Experiment: AChE activity in crude mite homogenate supernatant, acetylthiocholine/DTNB assay at […] nm
Type: biochemical, Psoroptes cuniculi

Row | SMILES | IC50 (ppm)
1 | CC1=CC(=O)c2c(O)cccc2C1=O [compound 2, Plumbagin] | 29.87
2 | O=C1C=CC(=O)c2c(O)cccc21 [compound 1, Juglone] | 14.81
